Series [1] deals with B cells (mouse splenic cells). Put plainly: In vitro class switching induction assay in mouse splenic cell culture with anti-mouse/rat CD40, isotype antibody titer by ELISA. Format: cell-based. As to conditions: for IgE induction, secondary screening / IgG1 induction, secondary screening: ELISA; for IgE induction, secondary screening / IgG1 induction, secondary screening / IgA induction, secondary screening: 3.75 μM; for IgA induction, secondary screening: IgA sandwich ELISA, day 10 after addition; for IgE antibody production on day 7 / total IgG antibody production on day 7: Indolactam V 5, 10 μM. The procedure:
Under conditions of free access to food and water, 5- to 8-week-old wild-type BALB/cAJcl (purchased from CLEA Japan, Inc.) was euthanized by cervical dislocation under isoflurane anesthesia. 70% Ethanol was sprayed, left abdomen was incised and the spleen was aseptically isolated. The spleen was subjected to a mild crushing treatment with two sterilized glass slides in a culture petri dish containing 5 ml of cell culture medium (RPMI1640 added with 10% FCS, 0.05 μM 2 ME, 80 μg/ml gentamicin) to give a splenic single cell suspension. The cell suspension was placed in a 15 ml tube, stood for 5 min, and the supernatant free of tissue debris was transferred to a new 15 ml tube. A washing operation was performed twice with the above-mentioned cell culture medium to give the number of viable cells. B cells occupy 35% of the viable cells and the number of B cells was obtained by calculation.
Based on the B cell number obtained in Example 1, the splenic cell suspension was diluted with the above-mentioned cell culture medium to 5×10^5/ml B cells, and the cells were added to a 24-well culture dish. The compound and cytokine were added to each well as shown in the results. […]
[…] As for ELISA capture antibody, each isotype antibody (unlabeled, mentioned later) was diluted to 2 μg/ml with 0.05 M Na2CO3 solution, added to ELISA plate (C96 MAXISORP NUNC-Immunoplate, Thermo Scientific) at 50 μl/well, and the plate was coated overnight at 4° C.
The next day, the coated ELISA plate was washed 3 times with 1×PBS. After washing, 1% BSA-added 1×PBS (50 μl) was added to each well and blocking was carried out at room temperature for 1 hr. During the blocking reaction, a dilution series of each culture supernatant was prepared using 1% BSA-added 1×PBS. The diluted sample was added to the plate after blocking at 50 μl/well, and the mixture was reacted at room temperature for 1 hr. Thereafter, a washing operation was performed 3 times with 0.05% Tween 20-added 1×PBS solution. Then, the secondary antibody (alkaline phosphatase-labeled) (0.5 μg/ml) that recognizes each isotype was added at 50 μl/well, and the mixture was reacted at room temperature for 1 hr. A washing operation was performed 3 times with 0.05% Tween 20-added 1×PBS solution, a substrate solution (Phosphatase substrate Sigma 104) was added, the mixture was placed under shading at room temperature to allow for color development, and the absorbance (405 nm) was measured with a plate reader. The antibody titer was shown as a relative absorbance value in a graph, or the absolute value was calculated from comparison with the standard isotype antibody and shown graphically.
In the primary screening, 3,337 kinds of compounds (provided by Drug Discovery Initiative, The University of Tokyo) were subjected to in vitro class switching assay. The final concentration of the compounds was 3.75 μM, and DMSO was added at a final concentration of 0.25% and anti-mouse/rat CD40 was added at a final concentration of 1 μg/ml to all wells including the wells added with cytokine. As a negative control, DMSO and CD40 were added.
In the secondary screening, 22 kinds of the candidate compounds obtained by the primary screening were screened. The culture conditions were the same as those in the primary screening. As the positive control, each isotype control antibody (1 μg/ml) was added. […] Compound No. 2 (Sapintoxin D), No. 12 (PMA) and No. 18 (ROPA) were all protein kinase C (PKC) activators.
From the results of the secondary screening, a substance that specifically induces IgA is a PKC activator and it has a characteristic cyclic structure. As compounds having a similar structure, 17 kinds of compounds (K1-K17) including the above-mentioned 3 kinds were provided by the library of Drug Discovery Initiative, The University of Tokyo. […]

The conditions of series [2]: stated as known / considered, not tested; cited from earlier work.
The next series has as its system AID. Briefly: RT-PCR confirmation of expression of AID in stimulated splenic cells. As to conditions: day 3 of stimulation; for expression of AID (RT-PCR): FIG. 11. Format: cell-based, mouse. As to the method: (§1) As evidence that class switching is in progress, the expression of alpha germline transcript and AID was confirmed by RT-PCR. Splenic cells were first stimulated with compound or cytokine under the same conditions as in Example 2. On day 3 of stimulation, floating cells were recovered and total RNA was extracted. cDNA was synthesized using random primers and RT-PCR was performed using the following primers.
(§2) PCR was performed using rTaq (TAKARA) and under the following conditions: […]

The next series has as its system B cells (splenic cells). Put plainly: Dose dependency of class switching induction by compound alone (no CD40), isotype ELISA. Format: cell-based, mouse. The conditions noted are these: 7 days; for IgA production by single stimulation free of CD40: each concentration tested (bryostatin 1 0-50 nM, 0-100 nM; Indolactam V 0-100 μM); for induction of IgE by single stimulation free of CD40 / induction of IgG by single stimulation free of CD40: each concentration tested. The procedure:
Indolactam V and bryostatin 1 (Santa Cruz Biotechnology) were purchased, and induction of class switching was performed using splenic cells. To confirm dose dependency of compounds, stimulation was performed at the concentrations shown in FIG. 12, FIG. 13 and FIG. 14. For cell culture, the cells were added to each well of a 6 well plate at 1.0×10^6 B cells/1 ml/well and cultured for 7 days. The cells were cultured without adding anti-mouse/rat CD40 to all wells and the negative control was added with culture medium alone. Stimulation with each cytokine was used as a positive control. The final concentration of each cytokine was 1 μg/ml for anti-mouse/rat CD40, 12.5 ng/ml for IL-4, 20 μg/ml for LPS as in the above-mentioned experiments.
The antibody titer measurement of each isotype by ELISA was performed by a method similar to that mentioned above. As a result, it was confirmed at each concentration tested that IgA was produced and induction of IgG and IgE was not observed by single stimulation with each of bryostatin 1 and Indolactam V free of CD40.

For series [3], the system named is alpha germline transcript. Briefly: RT-PCR confirmation of expression of alpha germline transcript in stimulated splenic cells. The conditions noted are these: day 3 of stimulation; for expression of alpha germline transcript (RT-PCR): FIG. 11. Format: cell-based, mouse. The procedure: as §1, §2
For the next series, the system named is cultured splenic cells. Briefly: Proliferation / cell number of cultured splenic cells under stimulation. Format: cell-based, mouse. As to the method:
Based on the B cell number obtained in Example 1, the splenic cell suspension was diluted with the above-mentioned cell culture medium to 5×10^5/ml B cells, and the cells were added to a 24-well culture dish. The compound and cytokine were added to each well as shown in the results. DMSO was added such that the concentration of DMSO, which is a solvent of the compound was equivalent in each well (final concentration 0.25%). A mixed culture medium of the compound and splenic cells was subjected to static culture for one week under conditions of 37° C., 5% CO2.
Thus, a substance that has properties as a PKC activator but is free of carcinogenicity was searched for and bryostatin 1 (Santa Cruz Biotechnology sc-201407) was obtained as a candidate (FIGS. 6 and 7). […] Since bryostatin is a substance having a structure completely different from those of the compounds tested in the tertiary screening, those of ordinary skill in the art in consideration of the results of Example 3 and Example 4 readily appreciate that PKC activators in general can be used as substances that induce specific class switching to IgA. In the experiments shown in FIG. 6 and FIG. 7, the final concentration of Indolactam V was 5 μM and 10 μM from the left, and the final concentration of bryostatin 1 was 1 nM, 5 nM, 10 nM from the left.
It was considered to be more than the survival and maintenance of IgA-producing cells originally existed in the spleen. Expression of both transcripts was low when CD40 was not added for bryostatin 1. This may reflect the difference in the amount of cDNA used for RT-PCR.

“Also recorded” adds a separate entry of the source.

Turning to `CNc1ccccc1C(=O)O[C@@H]1[C@@H](C)[C@@]2(O)[C@@H](C=C(CO)C[C@]3(O)C(=O)C(C)=C[C@@H]23)[C@@H]2C(C)(C)[C@]12OC(C)=O` [Compound No. 2, Sapintoxin D], in series [1] (with CD40), the “IgE induction, secondary screening” value was “did not induce”; the “IgG1 induction, secondary screening” value is “did not induce”; the “IgA induction, secondary screening” value is recorded as “induced IgA; also recorded: specifically induce IgA”.
`CC(C)[C@H]1C(=O)N[C@H](CO)Cc2c[nH]c3cccc(c23)N1C` [Indolactam V]: the carcinogenicity result in series [2] is “strong carcinogenicity”. Also, the “expression of AID (RT-PCR)” value in the series on AID is “observed”. Further, in series [1] (bryostatin 1 1, 5, 10 nM), the “IgE antibody production on day 7” value is listed as “scarcely produced” and the “total IgG antibody production on day 7” value is reported as “scarcely produced”. Further, the “IgA inducing activity, tertiary screening” value in series [1] (culture supernatant one week later, with CD40, Indolactam V 1-7 μM) was “very strong”. In addition, the “IgA specific class switching, tertiary screening” value in series [1] (triplicate, culture supernatant one week later, with CD40, Indolactam V 1, 3, 3.75, 5, 7 μM) was “induced IgA specific class switching; also recorded: best effect”. In addition, in the series on B cells (splenic cells), the “IgA production by single stimulation free of CD40” value is “produced; also recorded: Only the induction of IgA is shown to occur”, the “induction of IgE by single stimulation free of CD40” value is reported as “not observed” and the “induction of IgG by single stimulation free of CD40” value is given as “not observed”. The “expression of alpha germline transcript (RT-PCR)” value in series [3] was “observed”.
As to `CCC/C=C/C=C/C(=O)O[C@H]1/C(=C/C(=O)OC)C[C@H]2C[C@H]([C@@H](C)O)OC(=O)C[C@H](O)C[C@@H]3C[C@H](OC(C)=O)C(C)(C)[C@](O)(C[C@@H]4C/C(=C/C(=O)OC)C[C@H](/C=C/C(C)(C)[C@]1(O)O2)O4)O3` [bryostatin 1], the carcinogenicity result in series [2] is given as “did not show carcinogenicity”. The “expression of AID (RT-PCR)” value with AID is listed as “observed”. The “expression of AID (RT-PCR), CD40 not added” value with AID (without CD40) is “low”. For the same compound, in series [1] (Example 4, FIG. 6), the “IgA induction potency compared with Indolactam V” value was “inferior”. Moreover, the “specific class switching to IgA (Example 4)” value in series [1] (Example 4, FIGS. 6 and 7) was “induces specific class switching to IgA”. For the same compound, in series [1] (bryostatin 1 1, 5, 10 nM), the “IgE antibody production on day 7” value is “scarcely produced” and the “total IgG antibody production on day 7” value was “scarcely produced”. Moreover, in series [1] (bryostatin 1 1, 5, 10 nM, with CD40, day 5), the “IgA antibody titer on day 5 compared to the negative control (0.02% DMSO+CD40)” value was “increased significantly”. Besides, in series [1] (bryostatin 1 1, 5, 10 nM, with CD40, day 7), the “IgA antibody titer on day 7” value is “low”. In addition, the “proliferation of cultured cells, compound alone” value in the series on cultured splenic cells (bryostatin 1 alone (Example 5)) is recorded as “scarcely observed”. The “proliferation of cultured cells” value in the series on cultured splenic cells (bryostatin 1 stimulation (Example 4)) was “scarcely observed”. For the same compound, in the series on cultured splenic cells (stimulated with bryostatin 1, day 7), the “cell number on day 7” value was “extremely small”. Also, in the series on B cells (splenic cells), the “IgA production by single stimulation free of CD40” value was “produced; also recorded: Only the induction of IgA is shown to occur”, the “induction of IgE by single stimulation free of CD40” value is reported as “not observed” and the “induction of IgG by single stimulation free of CD40” value is given as “not observed”. Besides, the “expression of alpha germline transcript (RT-PCR)” value in series [3] is listed as “observed”. Further, the “expression of alpha germline transcript (RT-PCR), CD40 not added” value in series [3] (without CD40) was “low”.
With `CCCCCCCCCCCCCC(=O)O[C@@H]1[C@@H](C)[C@@]2(O)[C@@H](C=C(CO)C[C@]3(O)C(=O)C(C)=C[C@@H]23)[C@@H]2C(C)(C)[C@]12OC(C)=O` [compound 12, phorbol 12-myristate 13-acetate], in series [1] (with CD40), the “IgE induction, secondary screening” value is reported as “did not induce” and the “IgG1 induction, secondary screening” value is reported as “did not induce”. Further, the “IgA induction, secondary screening” value in series [1] (with CD40, listed as No. 12) was “induced IgA; also recorded: specifically induce IgA”.
As to “Resiniferonol-9,13,14-orthophenyl acetate [compound 18]”, in series [1] (with CD40), the “IgE induction, secondary screening” value is given as “did not induce” and the “IgG1 induction, secondary screening” value was “did not induce”. Besides, the “IgA induction, secondary screening” value in series [1] (with CD40, listed as No. 18) was “induced IgA; also recorded: specifically induce IgA”.

(Values after patent US11123324B2, “Immunomodulator” (priority 2016, dated 2021).)
